From patent US11813306B2, “Cyclic tetramer compounds as proprotein convertase subtilisin/kexin type 9 (PCSK9) inhibitors for the treatment of metabolic disorders” (NOVARTIS AG, priority 2018, dated 2023)
Counter-ions that a name gives are not always drawn. Like-named read-outs stand apart in the source and are kept apart here.

How the values were obtained:
[1] = amide bond, DCM
human PCSK9 = human PCSK9 (Homo sapiens, UniProt Q8NBP7); assay: PCSK9 ligand binding assay (TR-FRET): interference with binding of human PCSK9 to human LDLR; conditions: for IC50: Human PCSK9 Alexa Fluor 647 / Human LDLR extracellular domain-Europium Kryptate; for Max % inhibition: efficacy (Amax), 100% = 1 uM unlabeled human PCSK9, 0% = DMSO
Chain of human PCSK9 (Q8NBP7 153-692): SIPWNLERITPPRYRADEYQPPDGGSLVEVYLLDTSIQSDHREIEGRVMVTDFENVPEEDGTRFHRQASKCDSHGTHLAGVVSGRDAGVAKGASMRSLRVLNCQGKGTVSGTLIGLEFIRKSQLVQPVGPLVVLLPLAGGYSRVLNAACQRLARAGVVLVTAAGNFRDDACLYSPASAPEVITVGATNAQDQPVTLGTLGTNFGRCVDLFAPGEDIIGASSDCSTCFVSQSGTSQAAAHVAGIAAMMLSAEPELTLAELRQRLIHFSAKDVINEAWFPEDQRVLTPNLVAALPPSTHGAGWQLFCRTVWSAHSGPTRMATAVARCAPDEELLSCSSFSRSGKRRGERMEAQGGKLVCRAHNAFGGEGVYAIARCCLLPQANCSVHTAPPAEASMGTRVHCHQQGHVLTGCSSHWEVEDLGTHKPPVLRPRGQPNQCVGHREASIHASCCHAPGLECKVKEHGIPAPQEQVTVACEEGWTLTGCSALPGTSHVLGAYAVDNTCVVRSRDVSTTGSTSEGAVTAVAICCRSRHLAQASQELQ
Chain of human PCSK9 (Q8NBP7 31-152 partner limits assumed): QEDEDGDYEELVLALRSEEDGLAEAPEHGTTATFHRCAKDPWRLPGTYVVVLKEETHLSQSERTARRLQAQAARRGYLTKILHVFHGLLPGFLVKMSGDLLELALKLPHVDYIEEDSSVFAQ
Procedure, shortened: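 Read-out was TR-FRET ratio (665 nm over 615 nm, 330 nm excitation) between Alexa Fluor 647-human PCSK9 (16 nM added) and Europium Kryptate-human LDLR ectodomain (4 nM added). Compound and PCSK9 were mixed 30 min before LDLR, then incubated 2 h. Inhibition was normalised to DMSO and unlabelled-PCSK9 controls, giving IC50 and Amax.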

| SMILES | IC50 (human PCSK9) | Max % inhibition (human PCSK9) | other results |
| --- | --- | --- | --- |
| COC[C@@H]1NC(=O)[C@H](C)N(Cc2c(F)cc(Cl)cc2Oc2ccc(-c3cnc(CN(C(=O)OC(C)(C)C)C(C)(C)C)n3C)cc2)C(=O)C[C@@H](C2CC(F)(F)C2)C(=O)N2CCC[C@@](Cc3ccc(Cl)cc3)(C2)N(C)C1=O | – | – | ring closure, yield of all isomers ([1]; from COC[C@H](NC(=O)[C@H](C)NCc1c(F)cc(Cl)cc1Oc1ccc(-c2cnc(CN(C(=O)OC(C)(C)C)C(C)(C)C)n2C)cc1)C(=O)N(C)[C@@]1(Cc2ccc(Cl)cc2)CCCN(C(=O)[C@@H](CC(=O)O)C2CC(F)(F)C2)C1, HATU, 1.82 mM, 42.0 °C): 86% |
| C[C@H]1C(=O)N2[C@@H](COC2(C)C)C(=O)N[C@@]2(Cc3ccc(Cl)cc3)CCCN(C2)C(=O)[C@H](Cc2ccccc2)CC(=O)N1Cc1ccc(Cl)cc1Oc1ccc(-c2cnc(CN(C)C)n2C)cc1 | – | – | ring closure, yield of all isomers ([1]; from C[C@H](NCc1ccc(Cl)cc1Oc1ccc(-c2cnc(CN(C)C)n2C)cc1)C(=O)N1[C@H](C(=O)N[C@@]2(Cc3ccc(Cl)cc3)CCCN(C(=O)[C@@H](CC(=O)O)Cc3ccccc3)C2)COC1(C)C, HATU, 1.04 mM, 45.0 °C): 69% |
| C[C@H]1C(=O)N[C@@H](CO)C(=O)N(C)[C@@]2(Cc3ccc(Cl)cc3)CCCN(C2)C(=O)[C@H](Cc2cccc[n+]2[O-])CC(=O)N1Cc1c(F)cc(Cl)cc1Oc1ccc(-c2cnc(CN(C)C)n2C)cc1 | – | – | ring closure, yield of all isomers ([1]; from C[C@H](NCc1c(F)cc(Cl)cc1Oc1ccc(-c2cnc(CN(C)C)n2C)cc1)C(=O)N[C@@H](CO)C(=O)N(C)[C@@]1(Cc2ccc(Cl)cc2)CCCN(C(=O)[C@@H](CC(=O)O)Cc2cccc[n+]2[O-])C1, HATU/HOAt/2,6-lutidine, 1.08 mM, 48.0 °C, 4.0 h): 98.8% |
| C[C@H]1C(=O)N[C@@H](CO)C(=O)N[C@@]2(Cc3ccc(Cl)cc3)CCCN(C2)C(=O)[C@H](Cc2cccc[n+]2[O-])CC(=O)N1Cc1ccc(Cl)cc1Oc1ccc(-c2cnc(CN3CCCC3)n2C)cc1 | – | – | ring closure, yield of all isomers ([1]; from C[C@H](NCc1ccc(Cl)cc1Oc1ccc(-c2cnc(CN3CCCC3)n2C)cc1)C(=O)N1[C@H](C(=O)N[C@@]2(Cc3ccc(Cl)cc3)CCCN(C(=O)[C@@H](CC(=O)O)Cc3cccc[n+]3[O-])C2)COC1(C)C, HATU, 1.72 mM, 48.0 °C, 19.0 h, 2 steps): 33.3% |
| COC[C@@H]1NC(=O)[C@H](C)N(Cc2c(F)cc(Cl)cc2Oc2ccc(-c3cnc(CN(C)C)n3C)nc2)C(=O)C[C@@H](CC(F)(F)F)C(=O)N2CCC[C@@](Cc3ccc(Cl)cc3)(C2)N(C)C1=O [Compound 173] | 1.37 nM | 107.7% | – |
| C[C@H]1C(=O)N[C@@H](COC(F)F)C(=O)N(C)[C@@]2(Cc3ccc(Cl)cc3)CCCN(C2)C(=O)[C@H](CC(F)(F)F)CC(=O)N1Cc1c(F)cc(Cl)cc1Oc1ccc(-c2cnc(CN(C)C)n2C)cc1 [Compound 175, (3S, 7S, 10S, 13R)-6-(4-chloro-2-(4-(2-((dimethylamino)methyl)-1-methyl-1H-imidazol-5-yl)phenoxy)-6-fluorobenzyl)-13-(4-chlorobenzyl)-10-((difluoromethoxy)methyl)-7,12-dimethyl-3-(2,2,2-trifluoroethyl)-1,6,9,12-tetraazabicyclo[11.3.1]heptadecane-2,5,8,11-tetraone] | 2.56 nM | 114.7% | – |

More lines, in order of falling IC50 (human PCSK9), values ahead:

| IC50 (human PCSK9) | Max % inhibition (human PCSK9) | SMILES | other results |
| --- | --- | --- | --- |
| 76.3 nM | 86.3% | COC[C@@H]1NC(=O)[C@@H](C)N(Cc2c(F)cc(Cl)cc2Oc2ccc(-c3cnc(CN(C)C)n3C)nc2)C(=O)C[C@@H](CC(F)(F)F)C(=O)N2CCC[C@@](Cc3ccc(Cl)cc3)(C2)N(C)C1=O [Compound 176, (3S, 7R, 10S, 13R)-6-(4-chloro-2-((6-(2-((dimethylamino)methyl)-1-methyl-1H-imidazol-5-yl)pyridin-3-yl)oxy)-6-fluorobenzyl)-13-(4-chlorobenzyl)-10-(methoxymethyl)-7,12-dimethyl-3-(2,2,2-trifluoroethyl)-1,6,9,12-tetraazabicyclo[11.3.1]heptadecane-2,5,8,11-tetraone] | – |
| 52.7 nM | 108.8% | CNCc1ncc(-c2ccc(Oc3cc(Cl)cc(F)c3CN3C(=O)C[C@@H](CC(F)(F)F)C(=O)N4CCC[C@@](Cc5ccc(Cl)cc5)(C4)N(C)C(=O)[C@H](CO)NC(=O)[C@@H]3C)cc2)n1C [Compound 177, (3S,7S,10S,13R)-6-(4-chloro-2-fluoro-6-(4-(1-methyl-2-((methylamino)methyl)-1H-imidazol-5-yl)phenoxy)benzyl)-13-(4-chlorobenzyl)-10-(hydroxymethyl)-7,12-dimethyl-3-(2,2,2-trifluoroethyl)-1,6,9,12-tetraazabicyclo[11.3.1]heptadecane-2,5,8,11-tetraone trifluoroacetate] | – |
| 2.66 nM | 104.3% | CN(C)Cc1ncc(-c2ccc(Oc3cc(Cl)ccc3CN3C(=O)C[C@@H](Cc4ccccc4)C(=O)N4CCC[C@@](Cc5ccc(Cl)cc5)(C4)NC(=O)[C@H](CO)NC(=O)[C@@H]3CCN)cc2)n1C [Compound 178, (3R,7S,10S,13R)-7-(2-aminoethyl)-3-benzyl-6-(4-chloro-2-(4-(2-((dimethylamino)methyl)-1-methyl-1H-imidazol-5-yl)phenoxy)benzyl)-13-(4-chlorobenzyl)-10-(hydroxymethyl)-1,6,9,12-tetraazabicyclo[11.3.1]heptadecane-2,5,8,11-tetraone] | – |
| 2.2 nM | 110.7% | COC[C@@H]1NC(=O)[C@H](C)N(Cc2c(F)cc(Cl)cc2Oc2ccc(-c3cnc(CN(C)C)n3C)cc2)C(=O)C[C@@H](C2CCOCC2)C(=O)N2CCC[C@@](Cc3ccc(Cl)cc3)(C2)N(C)C1=O [Compound 174, (3S, 7S, 10S, 13R)-6-(4-chloro-2-(4-(2-((dimethylamino)methyl)-1-methyl-1H-imidazol-5-yl)phenoxy)-6-fluorobenzyl)-13-(4-chlorobenzyl)-10-(methoxymethyl)-7,12-dimethyl-3-(tetrahydro-2H-pyran-4-yl)-1,6,9,12-tetraazabicyclo[11.3.1]heptadecane-2,5,8,11-tetraone] | – |
| 1.03 nM | 107.8% | COC[C@@H]1NC(=O)[C@H](C)N(Cc2c(F)cc(Cl)cc2Oc2ccc(-c3cnc(CN(C)C)n3C)nc2)C(=O)C[C@@H](C2CC(F)(F)C2)C(=O)N2CCC[C@@](Cc3ccc(Cl)cc3)(C2)N(C)C1=O [Compound 171] | – |
| 0.85 nM | 113.1% | COC[C@@H]1NC(=O)[C@H](C)N(Cc2c(F)cc(Cl)cc2Oc2ccc(-c3cnc(CN(C)C(C)(C)C)n3C)cc2)C(=O)C[C@@H](C2CC(F)(F)C2)C(=O)N2CCC[C@@](Cc3ccc(Cl)cc3)(C2)N(C)C1=O [Compound 169, (3S, 7S, 10S, 13R)-6-(2-(4-(2-((tert-butyl(methyl)amino)methyl)-1-methyl-1H-imidazol-5-yl)phenoxy)-4-chloro-6-fluorobenzyl)-13-(4-chlorobenzyl)-3-(3,3-difluorocyclobutyl)-10-(methoxymethyl)-7,12-dimethyl-1,6,9,12-tetraazabicyclo[11.3.1]heptadecane-2,5,8,11-tetraone] | – |
| 0.73 nM | 115.0% | Cc1cccc(C[C@@H]2CC(=O)N(Cc3c(F)cc(Cl)cc3Oc3ccc(-c4cnc(CN(C)C)n4C)cc3)[C@@H](C)C(=O)N[C@@H](CO)C(=O)N(C)[C@@]3(Cc4ccc(Cl)cc4)CCCN(C3)C2=O)n1 [Compound 170, (3R,7S,10S,13R)-6-(4-chloro-2-(4-(2-((dimethylamino)methyl)-1-methyl-1H-imidazol-5-yl)phenoxy)-6-fluorobenzyl)-13-(4-chlorobenzyl)-10-(hydroxymethyl)-7,12-dimethyl-3-((6-methylpyridin-2-yl)methyl)-1,6,9,12-tetraazabicyclo[11.3.1]heptadecane-2,5,8,11-tetraone] | – |
| 0.57 nM | 104.8% | CNCc1ncc(-c2ccc(Oc3cc(Cl)cc(F)c3CN3C(=O)C[C@@H](CC(F)(F)F)C(=O)N4CCC[C@@](Cc5ccc(Cl)cc5)(C4)N(C)C(=O)[C@H](COC)NC(=O)[C@@H]3C)cc2)n1C [Compound 172, (3S, 7S, 10S, 13R)-6-(4-chloro-2-fluoro-6-(4-(1-methyl-2-((methylamino)methyl)-1H-imidazol-5-yl)phenoxy)benzyl)-13-(4-chlorobenzyl)-10-(methoxymethyl)-7,12-dimethyl-3-(2,2,2-trifluoroethyl)-1,6,9,12-tetraazabicyclo[11.3.1]heptadecane-2,5,8,11-tetraone] | – |
